Data reported in patent publication US20200385371A1 (Propellon Therapeutics Inc., priority 2017, published 2020).
pEC50, pIC50, pKd: −log10 of the molar value. Where two headings read alike, the source gives them in different places.

Assays:
MLL1-WRAD2 complex = biological target: T1, MLL1-WRAD2 complex (Homo sapiens, UniProt P61964); experiment: MLL1-WRAD2 enzyme assay (HMT); assay type: biochemical; conditions: Table 2, no unit printed in the cell
T1 construct: His tag (N); made in house; host or cells: E. coli
Method: Specifically, recombinant human MLL1 (aa 3745-3969, GenBank Accession No. NM_005933), WDR5 (aa 22-334, GenBank Accession No. NM_017588), RbBP5 (aa 1-538, GenBank Accession No. NM_005057), Ash2L (aa 2-534, GenBank Accession No. NM_001105214), and DPY-30 (aa 1-99, GenBank Accession No. NM_0325742), all with N-terminal His tag, are expressed in E. coli and mixed at a molar ratio of 1:1:1:1:2. 10 nM of the assembled MLL1-WRAD2 complex is mixed with 100 nM WRAD2 to enhance complex formation before incubation with 0.05 mg/ml nucleosome substrate and compounds (as 10 point duplicate dose response titrations) for 15 min in a buffer consisting of 50 mM Tris (pH 8.5), 5 mM MgCl2, 50 mM NaCl, 1 mM DTT, 0.01% Brij-35, and 1% DMSO. Reaction is initiated with 1 μM 3H-SAM and incubated for 1 hour at 30° C. Reaction mixture is transferred to P81 filter-paper and washed with PBS before detection.

WDR5 [1] = biological target: T2, WDR5 (Homo sapiens, UniProt P61964); experiment: Surface Plasmon Resonance (SPR) assay; assay type: binding; design: Full length WDR5 with an N-terminal His tag and C-terminal AviTag; His tag (N); made in house; host or cells: E. coli
Outline: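 Full-length biotinylated WDR5 (N-His, C-AviTag, E. coli) captured (~3000 RU) on streptavidin SA chip; Biacore T200. HBS-EP pH 7.4 plus 5% DMSO running buffer, 40 μl/min.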

WDR5 [2] = biological target: T2, WDR5; experiment: Fluorescence Polarization (FP) binding assay
Outline: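 Buffer was pH 6.5 sodium phosphate (80 mM) with 20 mM KCl and 0.008% Triton X-100; 9-Ala-FAM probe at 20 nM used 0.05 μM WDR5 and 480/540 nm polarization, H3 (1-15) probe at 30 nM used 0.3 μM WDR5 and 485/528 nm. Quadruplicate data were hyperbola-fitted to give Kdisp.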

MV4-11 cells = experiment: Cell proliferation assay (ATPlite); assay type: cell-based; conditions: Homo sapiens, 120 h; MV4-11 cells, five days; read-out: GI MV411 EC50
Outline: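 ATPlite luminescence after five days' culture (37° C, 5% CO2) gives viability. Compounds dosed in 10 concentrations up to 10 μM against DMSO; 1,000 cells/well seeded in Alpha-MEM/10% FBS.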

| Structure (SMILES) | pIC50 (MLL1-WRAD2 complex) | pKd (WDR5 [1]; Table 2, effect of difluoro substitution, read-out: KD (SPR)) | pIC50 (WDR5 [2]) | pEC50 (MV4-11 cells) | pKd (WDR5 [1]; read-out: SPR Kd) |
| --- | --- | --- | --- | --- | --- |
| C[C@@H]1CN(c2ncc(-c3cc(NC(=O)c4c[nH]c(=O)cc4C(F)(F)F)c(N4C[C@@H](C)N(C)[C@@H](C)C4)cc3F)cn2)C[C@H](C)O1 [reference compound] | 6.82 | 9.40 |  |  |  |
| CC(C)OC(=O)N1CC=C(c2c(F)cc(N3CCN(C)[C@@H](C)C3)c(NC(=O)c3c[nH]c(=O)cc3C(F)F)c2F)C1 [Example 36, Isopropyl (S)-3-(3-(4-(difluoromethyl)-6-oxo-1,6-dihydropyridine-3-carboxamido)-4-(3,4-dimethylpiperazin-1-yl)-2,6-difluorophenyl)-2,5-dihydro-H-pyrrole-1-carboxylate] |  |  | 7.88 | 7.26 | 8.98 |
| C[C@@H]1CN(c2ncc(-c3c(F)cc(N4CCN(C)[C@@H](C)C4)c(NC(=O)c4c[nH]c(=O)cc4C(F)(F)F)c3F)cn2)C[C@H](C)O1 [Example 55, N-(3-(2-((2S,6R)-2,6-dimethylmorpholino)pyrimidin-5-yl)-6-((S)-3,4-dimethylpiperazin-1-yl)-2,4-difluorophenyl)-6-oxo-4-(trifluoromethyl)-1,6-dihydropyridine-3-carboxamide] |  |  | 7.83 | 7.62 | 9.11 |
| C[C@@H]1CN(c2nc(-c3c(F)cc(N4CCN(C)[C@@H](C)C4)c(NC(=O)c4c[nH]c(=O)cc4C(F)F)c3F)cs2)C[C@H](C)O1 [Example 132, 4-(Difluoromethyl)-N-(3-(2-((2S,6R)-2,6-dimethylmorpholino)thiazol-4-yl)-6-((S)-3,4-dimethylpiperazin-1-yl)-2,4-difluorophenyl)-6-oxo-1,6-dihydropyridine-3-carboxamide] |  |  | 7.91 | 6.88 | 8.70 |
| COc1cc(N2CCC=C(c3c(F)cc(N4CCN(C)[C@@H](C)C4)c(NC(=O)c4c[nH]c(=O)cc4C(F)(F)F)c3F)C2)ncn1 [Example 68, (S)—N-(6-(3,4-dimethylpiperazin-1-yl)-2,4-difluoro-3-(1-(6-methoxypyrimidin-4-yl)-1,2,5,6-tetrahydropyridin-3-yl)phenyl)-6-oxo-4-(trifluoromethyl)-1,6-dihydropyridine-3-carboxamide] |  |  | 7.71 | 6.45 | 8.86 |
| C[C@@H]1CN(c2ncc(-c3c(F)cc(N4CCN(C)[C@@H](C)C4)c(NC(=O)c4cn(C)c(=O)cc4C(F)(F)F)c3F)cn2)C[C@H](C)O1 [Example 164, N-(3-(2-((2S,6R)-2,6-dimethylmorpholino)pyrimidin-5-yl)-6-((S)-3,4-dimethylpiperazin-1-yl)-2,4-difluorophenyl)-1-methyl-6-oxo-4-(trifluoromethyl)-1,6-dihydropyridine-3-carboxamide] |  |  | 7.88 | 7.14 | 8.94 |
| C[C@@H]1CN(c2ncc(-c3c(F)cc(N4C[C@@H](C)N(C)[C@@H](C)C4)c(NC(=O)c4c[nH]c(=O)cc4C(F)F)c3F)cn2)C[C@@H](C)O1 [Example 116, 4-(Difluoromethyl)-N-(3-(2-((2R,6R)-2,6-dimethylmorpholino)pyrimidin-5-yl)-2,4-difluoro-6-((3S,5R)-3,4,5-trimethylpiperazin-1-yl)phenyl)-6-oxo-1,6-dihydropyridine-3-carboxamide] |  |  | 7.82 | 7.44 | 8.95 |
| COc1cnc(N2CC=C(c3c(F)cc(N4CCN(C)[C@@H](C)C4)c(NC(=O)c4c[nH]c(=O)cc4C(F)F)c3F)CC2)nc1 [Example 48, (S)-4-(difluoromethyl)-N-(6-(3,4-dimethylpiperazin-1-yl)-2,4-difluoro-3-(1-(5-methoxypyrimidin-2-yl)-1,2,3,6-tetrahydropyridin-4-yl)phenyl)-6-oxo-1,6-dihydropyridine-3-carboxamide] |  |  | 7.65 | 6.57 | 8.83 |
| C[C@@H]1CN(c2cc(F)c(-c3cnc(N4CCOCC4)nc3)c(F)c2NC(=O)c2ccc(F)cc2C(F)F)C[C@H](C)N1C [Example 31, N-(2,4-difluoro-3-(2-morpholinopyrimidin-5-yl)-6-((3S,5R)-3,4,5-trimethylpiperazin-1-yl)phenyl)-2-(difluoromethyl)-4-fluorobenzamideformic Acid] |  |  | 7.71 | 7.02 | 8.98 |
| C[C@@H]1CN(c2ncc(-c3c(F)cc(N4CCN(C)[C@@H](C)C4)c(NC(=O)c4ccc(F)cc4C(F)(F)F)c3F)cn2)C[C@H](C)O1 [Example 66, N-(3-(2-((2S,6R)-2,6-dimethylmorpholino)pyrimidin-5-yl)-6-((S)-3,4-dimethylpiperazin-1-yl)-2,4-difluorophenyl)-4-fluoro-2-(trifluoromethyl)benzamide Formic Acid] |  |  | 7.85 | 7.34 | 8.69 |
| CC(C)OC(=O)N1CC=C(c2c(F)cc(N3CCN(C)[C@@H](C)C3)c(NC(=O)c3c[nH]c(=O)cc3C(F)F)c2F)CC1 [Example 34, Isopropyl (S)-4-(3-(4-(difluoromethyl)-6-oxo-1,6-dihydropyridine-3-carboxamido)-4-(3,4-dimethylpiperazin-1-yl)-2,6-difluorophenyl)-3,6-dihydropyridine-1(2H)-carboxylate] |  |  | 7.66 | 7.35 | 8.69 |
| C[C@@H]1CN(c2ccc(-c3c(F)cc(N4CCN(C)[C@@H](C)C4)c(NC(=O)c4c[nH]c(=O)cc4C(F)F)c3F)cn2)CCO1 [Example 181, 4-(Difluoromethyl)-N-(6-((S)-3,4-dimethylpiperazin-1-yl)-2,4-difluoro-3-(6-((R)-2-methylmorpholino)pyridin-3-yl)phenyl)-6-oxo-1,6-dihydropyridine-3-carboxamide] |  |  | 7.61 | 7.52 | 9.19 |
| COc1cnc(N2CCC=C(c3c(F)cc(N4CCN(C)[C@@H](C)C4)c(NC(=O)c4c[nH]c(=O)cc4C(F)(F)F)c3F)C2)nc1 [Example 52, (S)—N-(6-(3,4-dimethylpiperazin-1-yl)-2,4-difluoro-3-(1-(5-methoxypyrimidin-2-yl)-1,2,5,6-tetrahydropyridin-3-yl)phenyl)-6-oxo-4-(trifluoromethyl)-1,6-dihydropyridine-3-carboxamide] |  |  | 7.70 | 6.55 | 9.34 |
| Cc1nc(C(=O)N2CCC=C(c3c(F)cc(N4C[C@@H](C)N(C)[C@@H](C)C4)c(NC(=O)c4c[nH]c(=O)cc4C(F)(F)F)c3F)C2)cs1 [Example 188, N-(2,4-difluoro-3-(1-(2-methylthiazole-4-carbonyl)-1,2,5,6-tetrahydropyridin-3-yl)-6-((3S,5R)-3,4,5-trimethylpiperazin-1-yl)phenyl)-6-oxo-4-(trifluoromethyl)-1,6-dihydropyridine-3-carboxamide] |  |  | 7.88 | 6.33 | 8.60 |
| COc1cnc(N2CC=C(c3c(F)cc(N4CCN(C)[C@@H](C)C4)c(NC(=O)c4c[nH]c(=O)cc4C(F)F)c3F)C2)nc1 [Example 50, (S)-4-(difluoromethyl)-N-(6-(3,4-dimethylpiperazin-1-yl)-2,4-difluoro-3-(1-(5-methoxypyrimidin-2-yl)-2,5-dihydro-1H-pyrrol-3-yl)phenyl)-6-oxo-1,6-dihydropyridine-3-carboxamide] |  |  | 7.93 | 7.08 | 9.10 |
| C[C@H]1CN(c2cc(F)c(C3=CCCN(c4ncc(F)cn4)C3)c(F)c2NC(=O)c2c[nH]c(=O)cc2C(F)(F)F)CCN1C [Example 84, (S)—N-(6-(3,4-dimethylpiperazin-1-yl)-2,4-difluoro-3-(1-(5-fluoropyrimidin-2-yl)-1,2,5,6-tetrahydropyridin-3-yl)phenyl)-6-oxo-4-(trifluoromethyl)-1,6-dihydropyridine-3-carboxamide] |  |  | 7.78 | 6.79 | 8.84 |
| C[C@@H]1CN(c2cc(F)c(C3=CCN(c4ncc(F)cn4)CC3)c(F)c2NC(=O)c2c[nH]c(=O)cc2C(F)(F)F)C[C@H](C)N1C [Example 145, N-(2,4-difluoro-3-(1-(5-fluoropyrimidin-2-yl)-1,2,3,6-tetrahydropyridin-4-yl)-6-((3S,5R)-3,4,5-trimethylpiperazin-1-yl)phenyl)-6-oxo-4-(trifluoromethyl)-1,6-dihydropyridine-3-carboxamide] |  |  | 7.86 | 7.23 | 9.08 |
